Here are results for 79 compounds from the METLIN SMRT retention time set (Domingo-Almenara et al. 2019).

Each structure is given as a SMILES string.

This series can be described thus: gradient 5% acetonitrile 3 min, to 50% in 2 min, to 85% in 15 min, held 3 min, 100 µL/min. Conditions: column: Zorbax Extend-C18 2.1 x 50 mm; eluents: water / acetonitrile, 0.1% formic acid. Put shortly:
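Retention times come from adduct peaks that were picked computationally and then checked by hand. The standards, pure and pooled in mixtures of ~100 molecules, were run on a Zorbax Extend-C18 column (2.1 × 50 mm, 1.8 μm) at 100 μL/min with water and acetonitrile, each with 0.1% formic acid. Detection was by quadrupole time-of-flight mass spectrometry in positive and negative ionization mode, with a dead volume of 40 μL and a dwell volume of 900 μL.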
As for `CC(=O)Nc1ccc(CCc2nc3ccc(C(=O)NCc4ccc(C)o4)cc3[nH]2)cc1`, the RP-LC retention time amounted to 606 s. Take `COc1ccc(CNC(=O)c2[nH]c3cc(C)sc3c2CN(C)C)c(OC)c1`: the RP-LC retention time is 691 s. The compound `COc1ccc(Nc2c(-c3ccc(C)cc3)nc3ncccn23)cc1` displayed an RP-LC retention time of 720 s.

`Cn1c(CNC(=O)C2CCC2)nc2c1CN(C(=O)c1ccc(C(F)(F)F)s1)CC2` returned an RP-LC retention time of 656 s.

Consider `c1cc2nnc(C3CC3)n2nc1N1CCCC1`, for which the RP-LC retention time is 775 s. As for `COc1cc(N2C=C(C#N)S(=O)(=O)c3c(F)cccc32)cc(OC)c1OC`, the figure is 857 s. As for `COc1ccc(-n2ccc(=O)c(-c3nc(-c4ccccc4OC)no3)n2)cc1`, the figure is 776 s. For the compound `Cn1cc(S(=O)(=O)N2CCC(C(=O)NCc3ccc(Cl)cc3)CC2)cc1C(=O)N1CCCC1`, the RP-LC retention time is 772 s. `CCCN1C(=O)COc2ccc(-c3csc(NC(=O)c4ccc(Cl)cc4)n3)cc21` gave an RP-LC retention time of 1140 s. `CCN1CCN(CCNC(=O)c2ccc3nc(-c4ccc(Cl)cc4)cn3c2)CC1`: the RP-LC retention time worked out at 578 s. With `CNC(=O)N1CCCN(C)c2ccccc21` the figure was 484 s; with `COc1cccc(S(=O)(=O)N2CCC(N3CCN(Cc4ccc(C)cc4)C(=O)C3=O)CC2)c1`, 861 s; with `Cc1ccc(-c2nc(C3CCN(S(=O)(=O)c4ccccc4F)CC3)no2)cc1`, 1170 s. Compound `Cn1nccc1-c1cccc(-c2noc(CNS(=O)(=O)c3ccc(Cl)cc3)n2)c1` came in with an RP-LC retention time of 902 s. As for `COc1cccc2cc(C(=O)N3CC(c4nc(C5CC5)no4)C3)oc12`, the RP-LC retention time was 788 s. As for `CCCCn1c(=O)c2ccccc2n(Cc2nc(-c3ccc(F)cc3)no2)c1=O`, the figure is 1170 s; as for `O=C(Cn1nc2c(Sc3cccc(F)c3)nccn2c1=O)N1CCN(c2ccccc2)CC1`, 914 s; as for `CCc1noc(-c2cnc3nc(C)ccc3c2NCc2cc(OC)ccc2OC)n1`, 735 s. With `CS(=O)(=O)N1CCC(C(=O)NCc2cccc(Oc3ccc(F)cc3)c2)CC1` the figure was 767 s; with `O=C(NCCn1c(=O)n(Cc2ccccc2)c2cccnc21)c1ccccn1`, 719 s.

In the case of `CCCCN(CCCC)C(=O)CN1C[C@H](c2ccc3c(c2)OCO3)[C@@H](C(=O)O)[C@@H]1c1ccc(OC)cc1`, the RP-LC retention time was found to be 974 s. As for `Cc1noc(CNC(=O)C2CCN(C(=O)c3cc(-c4ccccc4)n[nH]3)CC2)n1`, the figure is 610 s. Turning to `Cc1scc2nc(C3CCC3)nc(N3CCC(C(=O)NC4CCCCC4)CC3)c12`, the RP-LC retention time is 752 s. In the case of `CCc1cccc(NC(=O)Cn2c(CC)nc3c(c2=O)CN(Cc2ccccc2)CC3)c1`, the RP-LC retention time was found to be 718 s. Compound `Cc1cc(C)cc(NS(=O)(=O)c2ccc3c(c2)C(=O)N(C)c2ncccc2O3)c1` came in with an RP-LC retention time of 1000 s. As for `COC(=O)c1c(NCc2cccc(Br)c2)c2cc(F)ccc2[nH]c1=O`, the RP-LC retention time was found to be 831 s.

In turn, `O=C(c1ccc(Br)cc1)N1CCN(c2cc(-c3ccccc3)[nH]n2)CC1` registered an RP-LC retention time of 849 s. `Cc1nc(-c2cn(C(C)C)c3ncccc23)sc1C(=O)Nc1ccc(F)cc1` gave an RP-LC retention time of 947 s. In turn, `NS(=O)(=O)c1cccnc1Nc1cccc(Cl)c1` returned an RP-LC retention time of 855 s. As for `Cc1cn(C)c(CC(=O)NCCN2CCOCC2)c1C(=O)O`, the figure is 572 s; as for `O=C(c1ccc(N2CCOCC2)nn1)N1CCN(c2cccc(C(F)(F)F)c2)CC1`, 779 s; as for `O=C(CCC1CCCN(S(=O)(=O)c2ccc(F)cc2)C1)NC1CC1` (centres undefined), 764 s.

`CCOCC(=O)N1CCC2(CCC2O)CC1` (centres undefined) registered an RP-LC retention time of 598 s.

The compound `COCc1noc([C@@H]2CN(C(=O)CCc3c(C)noc3C)C[C@H]2C(N)=O)n1` had an RP-LC retention time of 607 s.

As for `COCc1noc(C2CCCCN2C(=O)CCc2ccccc2OC)n1` (centres undefined), the RP-LC retention time turned out to be 902 s. The compound `CCOC(=O)c1cc(S(=O)(=O)N2CCCC2C(=O)Nc2cc(C)cc(C)c2)cn1C` (centres undefined) came in with an RP-LC retention time of 1020 s. As for `COC(=O)c1ccc(Cl)cc1NC(=O)N1CCC2(CC1)NC(=O)c1ccccc1O2`, the figure is 1000 s; as for `COCCn1cc(CCNC(=O)Nc2c(C)cccc2C)c2cccnc21`, 686 s. The compound `Cc1c(S(=O)(=O)NCc2ccco2)c(C)n(C)c1-c1nnc(C2CCC2)o1` yielded an RP-LC retention time of 853 s. Turning to `O=C(NCc1ccc(C(F)(F)F)cc1)c1cn2ccccc2n1`, the RP-LC retention time was 746 s.

The compound `Cc1ccc(Sc2nccnc2N2CCCC(C(=O)NCc3ccc(N(C)C)cc3)C2)cc1` (centres undefined) yielded an RP-LC retention time of 837 s. As for `CCCN(C)c1nccn2c(=O)n(CC(=O)Nc3cc(C)ccc3C)nc12`, the figure is 696 s; as for `O=C(c1c(-c2ccccc2)nnc2ccccc12)N1CCN(c2ncccn2)CC1`, 773 s; as for `CCOc1ccc(-c2cc3c(=O)n(Cc4nc(-c5cccc(Br)c5)no4)ncn3n2)cc1`, 1280 s. In turn, `O=C(CCn1nnc2cc(-c3noc(C4CCCCC4)n3)ccc21)N1CCOCC1` came in with an RP-LC retention time of 891 s. With `Cc1ccc(S(=O)(=O)N2CCC(C)CC2)cc1-c1nnc(-c2ccccc2)o1`, the RP-LC retention time stood at 1180 s. `CCC1CCCCN1S(=O)(=O)c1cc(-c2cc(C)[nH]n2)sc1C` (centres undefined): the RP-LC retention time was found to be 958 s. With `Nc1cc(C2CCN(S(=O)(=O)c3cccc(C(F)(F)F)c3)CC2)no1`, the RP-LC retention time was 794 s. Compound `Cc1cc(S(=O)(=O)Nc2cccnc2)c(Cl)cc1Cl` had an RP-LC retention time of 714 s.

`O=C(Cc1cccs1)NC1CCN(C(=O)c2cc(-c3cccs3)[nH]n2)CC1` showed an RP-LC retention time of 704 s. As for `Cc1ccc(Nc2c(-c3ccc(N(C)C)cc3)nc3cnccn23)cc1Cl`, the RP-LC retention time was 958 s. With `Cc1ccccc1C1CC(=O)c2c(C)nc(N3CCN(CCO)CC3)nc2C1` (centres undefined) the figure was 656 s. As for `CC1CCN(c2cc(-n3cnc(C(=O)NCc4ccco4)c3)ncn2)CC1`, the figure is 678 s; as for `Cc1nc(-c2cccc(C(=O)NC(C)C)c2)no1`, 596 s; as for `O=C1C2N=NN(c3ccccc3)C2C(=O)N1c1ccccc1` (centres undefined), 907 s.

Consider `Cc1ccc(-c2ccc(N3CCCC(C(=O)NCCCOC(C)C)C3)nn2)cc1C` (centres undefined), for which the RP-LC retention time worked out at 708 s. With `Cc1ccc(NS(=O)(=O)c2cc3n(c2)CCN(C)C3=O)c(F)c1` the figure was 1070 s. Consider `COc1ccc(-c2nn3c(COc4ccc(Br)cc4)nnc3s2)cc1OC`, for which the RP-LC retention time was determined as 980 s. `COc1ccccc1NC(=O)N1CCN(c2cnn3c(C)nnc3c2)CC1`: the RP-LC retention time is 605 s. `Cc1ccc(-c2nc3cccc(C)n3c2Nc2ccccc2C)cc1`: the RP-LC retention time came to 797 s. The compound `COc1ccc(CCC(=O)NCC2(c3cccs3)CCCC2)cc1` came in with an RP-LC retention time of 947 s. Take `CC1(C)CC(=O)c2cn(-c3ccc(F)cc3)c(=O)c(C(=O)Nc3ccccc3F)c2C1`: the RP-LC retention time amounted to 1070 s.

The compound `Cc1csc(-c2cc(S(=O)(=O)NCc3ccc(Br)cc3)c(C)s2)n1` returned an RP-LC retention time of 1050 s. As for `c1cc2c(cc1-c1noc(C3CCCCC3)n1)nnn2CCN1CCOCC1`, the figure is 711 s; as for `COc1ccc(-n2c(=O)c(C(=O)NCC3CCCO3)c(O)c3cccnc32)cc1` (centres undefined), 947 s; as for `Cc1ccc(F)c(NC(=O)Cn2cc(-c3nnc(C)o3)ccc2=O)c1`, 805 s. For `O=C(C1CC1)N1CCC(c2noc(-c3cnccn3)n2)C1` (centres undefined), the RP-LC retention time was 621 s. As for `Cc1ncc2c(n1)CCCN(CC(=O)NCC1CC1)C2=O`, the figure is 582 s. For `CCCOc1ccc(CN(C(=O)Cc2coc3ccc(C)cc23)C2CCS(=O)(=O)C2)cc1` (centres undefined), the RP-LC retention time came to 1130 s. `CCC(=O)NCCc1c[nH]c2ccc(Cl)cc12` gave an RP-LC retention time of 743 s. Compound `O=C(Nc1ccc(-n2cnnn2)cc1)C1CC(=O)N(c2ccccc2)C1` (centres undefined) had an RP-LC retention time of 662 s. As for `CCCCc1ccc(NC(=O)Cn2nc3cc(C)nc(-c4ccc(OC)cc4)n3c2=O)cc1`, the RP-LC retention time came out at 1040 s. Compound `O=C(Nc1nc2ccccc2[nH]1)c1ccc(Br)cc1` displayed an RP-LC retention time of 710 s. With `O=C1NCCCn2cc(S(=O)(=O)Nc3ccc4c(c3)OCCO4)cc21` the figure was 622 s; with `Cc1cccc(-c2nc3ccccn3c2NC(=O)NCCc2ccccc2)c1`, 680 s; with `COc1cc(NC(=O)Nc2nc(-c3nc4ccccc4s3)cs2)cc(OC)c1OC`, 863 s. With `O=C(Nc1nc(-c2ccccc2)cs1)c1ccc(COc2c(F)c(F)c(F)c(F)c2F)o1` the figure was 1220 s. `CCC1=NS(=O)(=O)c2cccnc2N1c1ccc(CC)cc1` showed an RP-LC retention time of 931 s.

As for `CC1OC(O[C@@H]2C=C3CC[C@@H]4[C@H](CC[C@]5(C)[C@@H](c6ccc(=O)oc6)CC[C@]45O)[C@@]3(C)CC2)C(O)C(O)C1O` (some centres undefined), the RP-LC retention time is 691 s.
